One series is described as follows: in vitro. As to the method: A test compound (final concentration 10 μM) was incubated at 37 °C in SGF, SIF, or human plasma for 2, 2, or 4 h, respectively. 100 μL aliquots were taken from each sample and 300 μL of acetonitrile containing an internal standard was added. […] All compounds were tested in triplicate. The percentage of a remaining compound after incubation was determined based on the chromatographic peak area of the sample after incubation and that of time zero (freshly prepared and injected) sample.

Series [1] addresses S. aureus cystathionine-γ-lyase (bCSE) (Staphylococcus aureus, UniProt A0A0H3K724). Kind of series: IC50 assay: inhibition of H2S production by purified bCSE, WSP5 fluorescent probe. It counts as biochemical. In a few lines: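 Purified recombinant enzyme (0.02 μM; E. coli-expressed) preincubated 40 min at 30 °C with inhibitor in 50 mM sodium phosphate pH 8.0, 10 μM PLP, 0.1% Tween 20 and 1.2 μM WSP-5. Started with 100 μM L-cysteine; H2S fluorescence (ex 500/em 530 nm) followed 12 h. IC50 from four-parameter fit, mean of ≥2 experiments.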

Sequence of S. aureus cystathionine-γ-lyase (bCSE) (A0A0H3K724 entry or part of it): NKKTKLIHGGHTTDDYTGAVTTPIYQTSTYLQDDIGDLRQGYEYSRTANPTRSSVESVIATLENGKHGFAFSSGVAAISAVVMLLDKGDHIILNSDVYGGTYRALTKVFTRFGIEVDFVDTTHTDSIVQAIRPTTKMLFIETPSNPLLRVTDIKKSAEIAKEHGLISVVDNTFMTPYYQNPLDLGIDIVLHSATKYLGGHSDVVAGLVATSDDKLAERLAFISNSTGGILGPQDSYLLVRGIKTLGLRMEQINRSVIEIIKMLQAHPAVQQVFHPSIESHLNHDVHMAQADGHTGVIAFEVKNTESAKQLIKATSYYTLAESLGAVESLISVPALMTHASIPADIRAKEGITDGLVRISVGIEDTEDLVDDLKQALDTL

As a reminder, the IC50 is the concentration that gives 50% inhibition. Low values mean greater potency in that assay, high ones weaker potency in that assay. As for `O=C(O)c1cc2ccccc2n1Cc1cccc2ccccc12` [Compound 2a], in the series “in vitro” (4 h, 10 μM), the “Stability in human plasma, % Remaining at 4 h” value is 97.6%. Also, the fraction remaining at 4 h, 10 μM in the series “in vitro” (human, plasma, Stability in human plasma, % Remaining at 4 h) came to 97.6 ± 7.95%. In addition, in the series “in vitro” (simulated gi fluid, 2 h, 10 μM), the “Stability in SGF, % Remaining at 2 h” value was 91.9%. In addition, the “Stability in SIF, % Remaining at 2 h” value in “in vitro” (simulated gi fluid, 2 h, 10 μM) is listed as 104.1%. The share remaining at 2 h, 10 μM is 91.9 ± 2.68% in the series “in vitro” (simulated gi fluid, Stability in SGF) and 104 ± 14.2% in “in vitro” (simulated gi fluid, Stability in SIF). The IC50 worked out at 65 µM in series [1] (IC50 (uM), bCSE enzymatic IC50, rounded, repeated in Table S13); 65 µM in series [1] (IC50 (uM), bCSE enzymatic IC50, rounded, repeated in Table S14); 65 µM in series [1] (IC50 (uM), bCSE enzymatic IC50, rounded, repeated in Table S15); 64.6 ± 3.1 µM in series [1] (IC50 biochemical assay bCSE, purified bCSE 0.02 μM, 100 μM L-cysteine, WSP5 probe, mean ± SD).

(Values after paper PMC10671052, “Naphthyl-Substituted Indole and Pyrrole Carboxylic Acids as Effective Antibiotic Potentiators—Inhibitors of Bacterial Cystathionine γ-Lyase” (International Journal of Molecular Sciences, 2023).)
